Data: ChEMBL document CHEMBL3046411, “Synthesis and antioxidant studies of novel N-substituted benzyl/phenyl-2-(3,4-dimethyl-5,5-dioxidopyrazolo[4,3-c][1,2]benzothiazin-2(4H)-yl)acetamides” (Med Chem Res, 2013)

Legend:
[1] = test system: Radical scavenging activity; experiment: Antioxidant activity assessed as DPPH radical scavenging activity at 0.5 mM after 30 min; format: functional
[2] = Antioxidant activity assessed as superoxide anion radical scavenging activity at 1 mM; format: functional

For `COc1ccc(O)c(C(C)(C)C)c1.COc1ccc(O)cc1C(C)(C)C`, the Activity [1] was 92.6%.
`COc1ccccc1NC(=O)Cn1nc2c(c1C)N(C)S(=O)(=O)c1ccccc1-2` gave an Activity [2] of 53.8% and an Activity [1] of 26.9%.
`Cc1c2c(nn1CC(=O)NCc1cccc(Br)c1)-c1ccccc1S(=O)(=O)N2C` showed an Activity [2] of 32.5% and an Activity [1] of 14.1%.
Work on `COc1cccc(NC(=O)Cn2nc3c(c2C)N(C)S(=O)(=O)c2ccccc2-3)c1` yielded an Activity [2] of 47.4% and an Activity [1] of 20.2%.
Work on `COc1cccc(CNC(=O)Cn2nc3c(c2C)N(C)S(=O)(=O)c2ccccc2-3)c1` yielded an Activity [2] of 25.9% and an Activity [1] of 16.2%.
In the case of `Cc1c2c(nn1CC(=O)Nc1ccc(Cl)cc1)-c1ccccc1S(=O)(=O)N2C`, the Activity [2] was 55.6% and the Activity [1] was 25.4%.
With `COc1ccc(CNC(=O)Cn2nc3c(c2C)N(C)S(=O)(=O)c2ccccc2-3)c(OC)c1` the Activity [2] was 58.3% and the Activity [1] was 27.3%.
With `Cc1c2c(nn1CC(=O)Nc1cccc(Br)c1)-c1ccccc1S(=O)(=O)N2C` the Activity [2] was 47.1% and the Activity [1] was 26.1%.
In the case of `COc1ccc(CNC(=O)Cn2nc3c(c2C)N(C)S(=O)(=O)c2ccccc2-3)cc1`, the Activity [2] was 33.1% and the Activity [1] was 23.7%.
In the case of `CCCOC(=O)c1cc(O)c(O)c(O)c1`, the Activity [2] was 90.8%.
In the case of `Cc1c2c(nn1CC(=O)NCc1ccccc1Br)-c1ccccc1S(=O)(=O)N2C`, the Activity [2] was 64% and the Activity [1] was 21.1%.
Work on `COc1ccc(NC(=O)Cn2nc3c(c2C)N(C)S(=O)(=O)c2ccccc2-3)c(OC)c1` yielded an Activity [2] of 78.3% and an Activity [1] of 39.8%.
`Cc1c2c(nn1CC(=O)NCc1ccccc1Cl)-c1ccccc1S(=O)(=O)N2C` gave an Activity [2] of 52.5% and an Activity [1] of 17.1%.
In the case of `Cc1c2c(nn1CC(=O)Nc1ccccc1)-c1ccccc1S(=O)(=O)N2C`, the Activity [2] was 28.6% and the Activity [1] was 18.3%.
For `Cc1c2c(nn1CC(=O)Nc1ccccc1Br)-c1ccccc1S(=O)(=O)N2C`, the Activity [2] was 79.1% and the Activity [1] was 27.6%.
Work on `Cc1c2c(nn1CC(=O)Nc1ccccc1Cl)-c1ccccc1S(=O)(=O)N2C` yielded an Activity [2] of 61% and an Activity [1] of 21.8%.
`Cc1c2c(nn1CC(=O)Nc1ccc(F)cc1)-c1ccccc1S(=O)(=O)N2C` showed an Activity [2] of 44.1% and an Activity [1] of 22.1%.
Compound `Cc1c2c(nn1CC(=O)NCc1ccc(Cl)cc1)-c1ccccc1S(=O)(=O)N2C` has an Activity [2] of 47.2% and an Activity [1] of 16.7%.
`Cc1c2c(nn1CC(=O)NCc1ccc(F)cc1)-c1ccccc1S(=O)(=O)N2C` gave an Activity [2] of 42.3% and an Activity [1] of 15.8%.
With `Cc1ccc(CNC(=O)Cn2nc3c(c2C)N(C)S(=O)(=O)c2ccccc2-3)cc1` the Activity [2] was 57.8% and the Activity [1] was 17.9%.
Work on `Cc1c2c(nn1CC(=O)NCc1ccccc1F)-c1ccccc1S(=O)(=O)N2C` yielded an Activity [2] of 48.5% and an Activity [1] of 20.2%.
`Cc1c2c(nn1CC(=O)Nc1ccccc1F)-c1ccccc1S(=O)(=O)N2C` showed an Activity [2] of 47.7% and an Activity [1] of 23.1%.
`COc1ccccc1CNC(=O)Cn1nc2c(c1C)N(C)S(=O)(=O)c1ccccc1-2` gave an Activity [2] of 38.8% and an Activity [1] of 25.6%.
`Cc1ccccc1CNC(=O)Cn1nc2c(c1C)N(C)S(=O)(=O)c1ccccc1-2` gave an Activity [2] of 81.5% and an Activity [1] of 15.2%.
